In the Kinase Knowledgebase extract (Sharma et al. 2016):

Experiments:
PIK3CA (human) = PIK3CA (human) (UniProt P42336); assay: Enzyme Assay
PIK3CD (Human) = PIK3CD (Human) (UniProt O00329); assay: Enzyme Assay
PIK3CD (Human), sequence (O00329 whole entry, looked up): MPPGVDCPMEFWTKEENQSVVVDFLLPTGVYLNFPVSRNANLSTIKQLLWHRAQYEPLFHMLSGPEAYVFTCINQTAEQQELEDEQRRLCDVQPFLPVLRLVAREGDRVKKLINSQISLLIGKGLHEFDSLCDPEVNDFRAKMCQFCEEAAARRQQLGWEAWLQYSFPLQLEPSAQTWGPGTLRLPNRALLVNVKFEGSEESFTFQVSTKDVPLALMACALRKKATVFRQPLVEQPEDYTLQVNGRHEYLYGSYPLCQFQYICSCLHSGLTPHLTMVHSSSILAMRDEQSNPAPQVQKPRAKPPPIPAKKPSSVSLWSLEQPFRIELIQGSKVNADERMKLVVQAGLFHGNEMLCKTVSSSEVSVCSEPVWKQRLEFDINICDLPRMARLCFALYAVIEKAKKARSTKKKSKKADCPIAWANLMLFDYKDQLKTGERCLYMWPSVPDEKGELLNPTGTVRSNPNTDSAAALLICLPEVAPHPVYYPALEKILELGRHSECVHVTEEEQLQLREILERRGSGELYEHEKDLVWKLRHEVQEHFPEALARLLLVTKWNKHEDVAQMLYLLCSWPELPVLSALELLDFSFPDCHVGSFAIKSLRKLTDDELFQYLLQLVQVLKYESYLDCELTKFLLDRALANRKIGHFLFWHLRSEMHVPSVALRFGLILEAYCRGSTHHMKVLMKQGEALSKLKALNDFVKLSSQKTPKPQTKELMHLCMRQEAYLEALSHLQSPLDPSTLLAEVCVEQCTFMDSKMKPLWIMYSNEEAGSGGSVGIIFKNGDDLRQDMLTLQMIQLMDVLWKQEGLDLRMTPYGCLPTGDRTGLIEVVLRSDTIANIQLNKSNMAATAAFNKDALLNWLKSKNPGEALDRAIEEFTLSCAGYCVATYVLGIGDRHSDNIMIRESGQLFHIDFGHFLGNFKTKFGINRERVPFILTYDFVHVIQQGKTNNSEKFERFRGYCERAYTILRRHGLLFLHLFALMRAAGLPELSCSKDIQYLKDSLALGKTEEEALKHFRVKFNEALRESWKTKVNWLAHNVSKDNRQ

PIK3CA (human), sequence (P42336 whole entry, looked up): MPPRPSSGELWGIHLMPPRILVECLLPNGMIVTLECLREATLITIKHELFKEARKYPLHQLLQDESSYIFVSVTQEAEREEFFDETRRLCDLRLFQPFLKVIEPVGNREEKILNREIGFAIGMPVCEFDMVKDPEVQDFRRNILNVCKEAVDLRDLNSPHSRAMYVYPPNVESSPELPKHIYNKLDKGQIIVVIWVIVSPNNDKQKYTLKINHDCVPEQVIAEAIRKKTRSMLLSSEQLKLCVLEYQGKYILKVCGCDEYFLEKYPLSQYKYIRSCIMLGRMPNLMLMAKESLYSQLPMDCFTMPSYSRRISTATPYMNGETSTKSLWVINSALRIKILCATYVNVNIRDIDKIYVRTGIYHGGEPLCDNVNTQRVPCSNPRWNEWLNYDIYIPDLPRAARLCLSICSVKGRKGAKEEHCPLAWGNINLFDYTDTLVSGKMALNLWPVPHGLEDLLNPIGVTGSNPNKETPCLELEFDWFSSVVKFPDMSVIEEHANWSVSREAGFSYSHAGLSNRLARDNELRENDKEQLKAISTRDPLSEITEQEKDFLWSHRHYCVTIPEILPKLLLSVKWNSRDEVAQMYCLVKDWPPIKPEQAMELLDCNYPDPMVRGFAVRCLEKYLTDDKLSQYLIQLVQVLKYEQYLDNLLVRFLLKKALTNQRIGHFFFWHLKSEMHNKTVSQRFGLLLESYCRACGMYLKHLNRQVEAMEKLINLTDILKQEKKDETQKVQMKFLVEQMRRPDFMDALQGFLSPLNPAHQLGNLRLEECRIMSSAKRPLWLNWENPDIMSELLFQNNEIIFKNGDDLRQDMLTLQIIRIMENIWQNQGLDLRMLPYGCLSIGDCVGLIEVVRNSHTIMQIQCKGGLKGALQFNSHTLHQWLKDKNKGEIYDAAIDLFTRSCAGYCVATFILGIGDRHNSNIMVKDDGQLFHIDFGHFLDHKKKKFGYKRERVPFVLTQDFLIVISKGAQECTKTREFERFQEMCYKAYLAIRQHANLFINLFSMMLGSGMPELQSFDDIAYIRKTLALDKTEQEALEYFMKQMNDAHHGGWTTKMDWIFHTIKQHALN

| Structure (SMILES) | IC50 (PIK3CA (human)) | IC50 (PIK3CD (Human)) |
| --- | --- | --- |
| Cc1ccccc1-n1c(Cn2nc(C(=O)O)c3c(N)ncnc32)cc2cccc(C)c2c1=O |  | 100 to 1000 nM |
| Cc1cccc2cc([C@H](C)Nc3nc(N)ncc3F)n(C3CC3)c(=O)c12 | > 10000 nM |  |
| CCC(Nc1ncnc2[nH]cnc12)c1cc2cccc(C)c2c(=O)n1C1CCN(C)CC1 (stereo unspecified) | > 10000 nM | 100 to 1000 nM |
| Cc1cccc2cc([C@H](C)Nc3ncnc4[nH]ncc34)n(-c3ccccc3)c(=O)c12 | > 10000 nM | 100 to 1000 nM |
| Cc1ccccc1-n1c(Cn2nc(C#C[C@H](C)O)c3c(N)ncnc32)cc2cccc(C)c2c1=O | > 10000 nM | 100 to 1000 nM |
| CCC(Nc1ncnc2[nH]cnc12)c1cc2cccc(C)c2c(=O)n1C(C)C (stereo unspecified) | > 10000 nM | < 100 nM |
| Cc1cccc2cc(C(C)Nc3ncnc4[nH]cnc34)n(-c3ccccc3)c(=O)c12 (stereo unspecified) |  | < 100 nM |
| Cc1cccc2cc(C(C)Nc3ncnc4[nH]cnc34)n(C3CCCC3)c(=O)c12 (stereo unspecified) |  | < 100 nM |
| Cc1cccc2cc(Cn3nc(C#C[C@@H](C)O)c4c(N)ncnc43)n(C(C)C)c(=O)c12 | > 10000 nM |  |
| Cc1cccc2cc([C@H](C)Nc3c(C#N)cnc4ccccc34)n(-c3ccccc3)c(=O)c12 | > 10000 nM |  |
| CC(=O)Nc1nc2ccc(-c3nn(Cc4cc5cccc(C)c5c(=O)n4-c4ccccc4)c4ncnc(N)c34)cc2s1 | 100 to 1000 nM |  |
| Cc1ccccc1-n1c(Cn2nc(-c3cc(O)cc(F)c3)c3c(N)ncnc32)cc2ccccc2c1=O | > 10000 nM |  |
| CC(=O)c1nn(Cc2cc3cccc(C)c3c(=O)n2-c2ccccc2)c2ncnc(N)c12 | > 10000 nM | 100 to 1000 nM |
| Cc1cccc2cc(C(C)Nc3ncnc4[nH]cnc34)n(-c3ccccc3F)c(=O)c12 (stereo unspecified) | > 10000 nM |  |
| Cc1cccnc1-n1c(Cn2nc(-c3cc(O)cc(F)c3)c3c(N)ncnc32)cc2cccc(C)c2c1=O | > 10000 nM |  |
| Cc1ccccc1-n1c(Cn2nc(-c3ccc(Cl)c(O)c3)c3c(N)ncnc32)cc2cccc(C)c2c1=O | > 10000 nM |  |
| Cc1ccccc1-n1c(Cn2nc(-c3ccc4nc(N)sc4c3)c3c(N)ncnc32)cc2cccc(C)c2c1=O | 100 to 1000 nM |  |
| CCC(Nc1ncnc2[nH]cnc12)c1cc2cccc(C)c2c(=O)n1-c1ccc(F)cc1 (stereo unspecified) |  | < 100 nM |
| Cc1ccccc1-n1c(Cn2nc(-c3ccc4cc[nH]c4c3)c3c(N)ncnc32)cc2cccc(C)c2c1=O | > 10000 nM |  |
| Cc1cccnc1-n1c(Cn2nc(Cl)c3c(N)ncnc32)cc2cccc(C)c2c1=O | > 10000 nM | 100 to 1000 nM |
| Cc1cccc2cc(C(C)Nc3ncnc4[nH]cnc34)n(CCN3CCCC3)c(=O)c12 (stereo unspecified) |  | < 100 nM |
| Cc1ccccc1-n1c(Cn2nc(-c3ccc(O)c(F)c3)c3c(N)ncnc32)cc2cccc(C)c2c1=O | > 10000 nM |  |
| Cc1cccc2cc(Cn3nc(C(N)=O)c4c(N)ncnc43)n(-c3ccccc3)c(=O)c12 |  | 100 to 1000 nM |
| Cc1cccc2cc([C@H](C)Nc3nc(N)ncc3Cl)n(-c3ccccc3)c(=O)c12 | > 10000 nM | < 100 nM |
| CC(=O)Nc1nc2ccc(-c3nn(Cc4cc5cccc(C)c5c(=O)n4-c4ccccc4C)c4ncnc(N)c34)cc2[nH]1 |  | < 100 nM |
| Cc1ccccc1-n1c(Cn2nc(I)c3c(N)ncnc32)cc2cccc(C)c2c1=O | > 10000 nM |  |

| Structure (SMILES) | IC50 (PIK3CA (human)) | IC50 (PIK3CD (Human)) |
| --- | --- | --- |
| Cc1cccc2cc(Cn3nc(-c4cccc(O)c4)c4c(N)ncnc43)n(-c3ccccc3Cl)c(=O)c12 | > 10000 nM |  |
| Cc1ccccc1-n1c(Cn2nc(-c3ccc4nc(N)ccc4c3)c3c(N)ncnc32)cc2cccc(C)c2c1=O | 100 to 1000 nM |  |
| Cc1ccccc1-n1c(Cn2nc(-c3ccc4nc(N)oc4c3)c3c(N)ncnc32)cc2cccc(C)c2c1=O |  | < 100 nM |
| Cc1cccc2cc([C@@H](C)Nc3ncnc4[nH]cnc34)n(C3CC3)c(=O)c12 |  | > 10000 nM |
| Cc1cccc2cc(Cn3nc(-c4cccc(O)c4)c4c(N)ncnc43)n(C3CCC3)c(=O)c12 | > 10000 nM |  |
| Cc1cccc2cc(Cn3nc(-c4cc(O)cc(F)c4)c4c(N)ncnc43)n(C3CC3)c(=O)c12 | 100 to 1000 nM |  |
| Cc1cccc2cc([C@H](C)Nc3nc(F)nc4[nH]cnc34)n(-c3ccccc3)c(=O)c12 |  | < 100 nM |
| Cc1cccc2cc(Cn3nc(-c4ccc(F)c(O)c4)c4c(N)ncnc43)n(C(C)C)c(=O)c12 | > 10000 nM |  |
| Cc1cccc2cc([C@H](C)Nc3ncnc4[nH]cnc34)n(C3CCC3)c(=O)c12 |  | < 100 nM |
| Cc1ccccc1-n1c(Cn2nc(Br)c3c(N)ncnc32)cc2cccc(C)c2c1=O | > 10000 nM |  |
| Cc1cccc2cc([C@H](C)NC(=O)c3cnn4ccccc34)n(-c3ccccc3)c(=O)c12 | > 10000 nM | > 10000 nM |
| Cc1cccnc1-n1c(Cn2nc(-c3ccc(Cl)c(O)c3)c3c(N)ncnc32)cc2cccc(C)c2c1=O | > 10000 nM |  |
| Cc1cccc2cc(C(C)Nc3ncnc4[nH]cnc34)n(C3CCC3)c(=O)c12 (stereo unspecified) | > 10000 nM | < 100 nM |
| Cc1ccccc1-n1c(Cn2nc(I)c3c(N)ncnc32)cc2ccccc2c1=O | > 10000 nM | 100 to 1000 nM |
| Cc1ccccc1-n1c(Cn2nc(-c3ccc4oc(N)nc4c3)c3c(N)ncnc32)cc2cccc(C)c2c1=O | 100 to 1000 nM | < 100 nM |
| Cc1ccccc1-n1c(Cn2nc(C=CC(N)=O)c3c(N)ncnc32)cc2cccc(C)c2c1=O | > 10000 nM |  |
| Cc1ccccc1-n1c(Cn2nc(-c3cnc4[nH]ccc4c3)c3c(N)ncnc32)cc2cccc(C)c2c1=O | > 10000 nM |  |
| Cc1cccc2cc(Cn3nc(C#CC4CC4)c4c(N)ncnc43)n(-c3ccccc3F)c(=O)c12 |  | 100 to 1000 nM |
| CNC(=O)c1nn(Cc2cc3cccc(C)c3c(=O)n2-c2ccccc2)c2ncnc(N)c12 | > 10000 nM | 100 to 1000 nM |
| COc1ccc(-c2nn(Cc3cc4cccc(C)c4c(=O)n3-c3ccccc3C)c3ncnc(N)c23)cc1 | > 10000 nM | 100 to 1000 nM |
| Cc1ccccc1-n1c(Cn2nc(-c3cccc(O)c3)c3c(N)ncnc32)cc2cccc(C)c2c1=O | > 10000 nM |  |
| Nc1ncnc2c1c(-c1cccc(O)c1)nn2Cc1cc2cccc(F)c2c(=O)n1-c1ccccc1F |  | 100 to 1000 nM |
| Cc1cccc2cc(Cn3nc(-c4cccc(O)c4)c4c(N)ncnc43)n(C3CCCCC3)c(=O)c12 | > 10000 nM |  |
| Cc1cccc2cc([C@H](C)Nc3nc(Cl)nc4[nH]cnc34)n(-c3ccccc3)c(=O)c12 |  | < 100 nM |
| Cc1cccc2cc(Cn3nc(-c4cc(O)cc(F)c4)c4c(N)ncnc43)n(-c3ccccc3)c(=O)c12 | 100 to 1000 nM |  |

Continued, values first:

| IC50 (PIK3CA (human)) | IC50 (PIK3CD (Human)) | Structure (SMILES) |
| --- | --- | --- |
| > 10000 nM | 100 to 1000 nM | CC(=O)Nc1nc2cc(-c3nn(Cc4cc5cccc(C)c5c(=O)n4-c4ccccc4C)c4ncnc(N)c34)ccc2s1 |
| > 10000 nM |  | Cc1ccccc1-n1c(C(C)Nc2ncnc3[nH]cnc23)cc2cccc(C)c2c1=O (stereo unspecified) |
|  | < 100 nM | Cc1ccccc1-n1c(Cn2nc(-c3nn[nH]n3)c3c(N)ncnc32)cc2cccc(C)c2c1=O |
| > 10000 nM |  | Cc1cccc2cc(Cn3nc(C#C[C@@H](C)O)c4c(N)ncnc43)n(C3CCCC3)c(=O)c12 |
| > 10000 nM | > 10000 nM | COCc1nn(Cc2cc3cccc(C)c3c(=O)n2-c2ccccc2C)c2ncnc(N)c12 |
| > 10000 nM |  | COc1ccccc1-n1c(Cn2nc(-c3cccc(O)c3)c3c(N)ncnc32)cc2cccc(C)c2c1=O |
| > 10000 nM | < 100 nM | Cc1cccc2cc([C@H](C)Nc3ncnc4[nH]ccc34)n(-c3ccccc3)c(=O)c12 |
|  | < 100 nM | Cc1cccc2cc(C(C)Nc3ncnc4[nH]cnc34)n(CCN3CCOCC3)c(=O)c12 (stereo unspecified) |
|  | < 100 nM | Cc1ccccc1-n1c(Cn2nc(-c3ccc4nc(N)[nH]c4c3)c3c(N)ncnc32)cc2cccc(C)c2c1=O |
|  | < 100 nM | Cc1cccc2cc(Cn3nc(-c4ccc5oc(N)nc5c4)c4c(N)ncnc43)n(-c3ccccc3)c(=O)c12 |
|  | < 100 nM | CCc1nn(Cc2cc3cccc(C)c3c(=O)n2-c2ccccc2)c2ncnc(N)c12 |
|  | 100 to 1000 nM | Cc1cccnc1-n1c(Cn2nc(-c3cccc(O)c3)c3c(N)ncnc32)cc2ccccc2c1=O |
| > 10000 nM |  | Cc1nc2c(N[C@@H](C)c3cc4cccc(C)c4c(=O)n3-c3ccccc3)ncnc2[nH]1 |
| > 10000 nM | 100 to 1000 nM | Cc1cccnc1-n1c(Cn2nc(Br)c3c(N)ncnc32)cc2cccc(C)c2c1=O |
|  | 100 to 1000 nM | CC(Nc1ncnc2[nH]cnc12)c1cc2ccccc2c(=O)n1C1CCN(C)CC1 (stereo unspecified) |
|  | < 100 nM | Cc1cccc2cc([C@H](C)Nc3ncnc4[nH]cnc34)n(-c3ccccc3)c(=O)c12 |
| > 10000 nM |  | Cc1ccccc1-n1c(Cn2nc(-c3ccc(F)c(O)c3)c3c(N)ncnc32)cc2cccc(C)c2c1=O |

| IC50 (PIK3CA (human)) | IC50 (PIK3CD (Human)) | Structure (SMILES) |
| --- | --- | --- |
|  | < 100 nM | Cc1cccc2cc(Cn3nc(-c4ccc5nc(N)[nH]c5c4)c4c(N)ncnc43)n(-c3ccccc3)c(=O)c12 |
| > 10000 nM | 100 to 1000 nM | Cc1ccccc1-n1c(Cn2nc(C#C[C@@H](C)O)c3c(N)ncnc32)cc2ccccc2c1=O |
| > 10000 nM | < 100 nM | Cc1cccc2cc([C@H](C)Nc3nc(N)ncc3C(F)(F)F)n(-c3ccccc3)c(=O)c12 |
|  | < 100 nM | Cc1cccc2cc([C@H](C)Nc3ncnc4[nH]cnc34)n(C(C)C)c(=O)c12 |
|  | 100 to 1000 nM | Cc1cccc2cc(Cn3nc(-c4cn[nH]c4)c4c(N)ncnc43)n(C3CCN(C)CC3)c(=O)c12 |
|  | < 100 nM | Cc1cccnc1-n1c(Cn2nc(-c3ccc4oc(N)nc4c3)c3c(N)ncnc32)cc2cccc(C)c2c1=O |
| > 10000 nM | > 10000 nM | Cc1cccc2cc(Cn3nc(C(C)(C)O)c4c(N)ncnc43)n(-c3ccccc3)c(=O)c12 |
| > 10000 nM |  | Cc1cccc2cc(Cn3nc(-c4cccc(O)c4)c4c(N)ncnc43)n(-c3ccccc3O)c(=O)c12 |
| > 10000 nM |  | Cc1ccccc1-n1c(Cn2nc(-c3ccc(O)c(Cl)c3)c3c(N)ncnc32)cc2cccc(C)c2c1=O |
| > 10000 nM |  | Cc1ccccc1-n1c(Cn2nc(-c3cn[nH]c3)c3c(N)ncnc32)cc2cccc(C)c2c1=O |
| > 10000 nM | < 100 nM | CCC(Nc1ncnc2[nH]cnc12)c1cc2cccc(C)c2c(=O)n1-c1ccccc1 (stereo unspecified) |
| > 10000 nM |  | Cc1cccc2cc(Cn3nc(C#C[C@@H](C)O)c4c(N)ncnc43)n(-c3ccccc3C(C)C)c(=O)c12 |
| > 10000 nM | 100 to 1000 nM | Cc1ccccc1-n1c(Cn2nc(CO)c3c(N)ncnc32)cc2cccc(C)c2c1=O |
|  | < 100 nM | Cc1ccccc1-n1c(Cn2nc(C(F)F)c3c(N)ncnc32)cc2cccc(C)c2c1=O |
|  | 100 to 1000 nM | Cc1cccc2cc(Cn3nc(I)c4c(N)ncnc43)n(C3CCCC3)c(=O)c12 |
| > 10000 nM |  | Cc1cccc2cc(Cn3nc(-c4cc(O)cc(F)c4)c4c(N)ncnc43)n(C3CCCCC3)c(=O)c12 |
